Test results as given in ChEMBL document CHEMBL4725318, “New vinyl-1,2,4-triazole derivatives as antimicrobial agents: Synthesis, biological evaluation and molecular docking studies” (2020).
In brackets after ≈: the same amount, converted by molar mass.

Key:
Type in all cases: functional
Penicillium cyclopium [1] = experiment: Antifungal activity Penicillium verrucosum var. cyclopium by microdilution method
Erwinia amylovora [2] = experiment: Bactericidal activity against Erwinia amylovora
Bacillus subtilis [3] = experiment: Antibacterial activity against Bacillus subtilis by microdilution method
Aspergillus fumigatus [4] = experiment: Antifungal activity Aspergillus fumigatus by microdilution method
Pseudomonas fluorescens [5] = experiment: Antibacterial activity against Pseudomonas fluorescens by microdilution method
Talaromyces funiculosus [6] = experiment: Fungicidal activity Penicillium funiculosum
Xanthomonas campestris [7] = experiment: Antibacterial activity against Xanthomonas campestris by microdilution method
Talaromyces funiculosus [8] = experiment: Antifungal activity Penicillium funiculosum by microdilution method
Erwinia amylovora [9] = experiment: Antibacterial activity against Erwinia amylovora by microdilution method
Aspergillus versicolor [10] = experiment: Antifungal activity Aspergillus versicolor by microdilution method
Trichoderma viride [11] = experiment: Fungicidal activity Trichoderma viride
Aspergillus niger [12] = experiment: Antifungal activity Aspergillus niger by microdilution method
[13] = test system: Pectobacterium carotovorum; experiment: Bactericidal activity against Erwinia carotovora
Penicillium ochrochloron [14] = experiment: Fungicidal activity Penicillium ochrochloron
[15] = test system: Pectobacterium carotovorum; experiment: Antibacterial activity against Erwinia carotovora by microdilution method
Bacillus subtilis [16] = experiment: Bactericidal activity against Bacillus subtilis
Aspergillus ochraceus [17] = experiment: Fungicidal activity Aspergillus ochraceus
Pseudomonas fluorescens [18] = experiment: Bactericidal activity against Pseudomonas fluorescens
Penicillium ochrochloron [19] = experiment: Antifungal activity Penicillium ochrochloron by microdilution method
Aspergillus niger [20] = experiment: Fungicidal activity Aspergillus niger
Xanthomonas campestris [21] = experiment: Bactericidal activity against Xanthomonas campestris
Trichoderma viride [22] = experiment: Antifungal activity Trichoderma viride by microdilution method
Aspergillus ochraceus [23] = experiment: Antifungal activity Aspergillus ochraceus by microdilution method
Aspergillus versicolor [24] = experiment: Fungicidal activity Aspergillus versicolor
Aspergillus fumigatus [25] = experiment: Fungicidal activity Aspergillus fumigatus
Penicillium cyclopium [26] = experiment: Fungicidal activity Penicillium verrucosum var. cyclopium

How did the MIC (Penicillium cyclopium [1]) turn out when `CC(C)CC(=O)/C(=C/c1ccc([N+](=O)[O-])cc1)n1cncn1` was run?
Its MIC is 40 µM (≈ 12 µg/mL).

What about the MBC (Erwinia amylovora [2]) of the same compound?
The MBC was 0.8 µM (≈ 0.24 µg/mL).

What about the MIC (Bacillus subtilis [3]) of the same compound?
Its MIC is 0.8 µM (≈ 0.24 µg/mL).

What about the MIC (Aspergillus fumigatus [4]) of the same compound?
Its MIC is 20 µM (≈ 6.01 µg/mL).

And the MIC (Pseudomonas fluorescens [5])?
Its MIC is 3.3 µM (≈ 0.991 µg/mL).

And the MFC (Talaromyces funiculosus [6])?
Its MFC is 60 µM (≈ 18 µg/mL).

And the MIC (Xanthomonas campestris [7])?
The MIC was 0.8 µM (≈ 0.24 µg/mL).

And the MIC (Talaromyces funiculosus [8])?
The MIC was 40 µM (≈ 12 µg/mL).

What about the MIC (Erwinia amylovora [9]) of the same compound?
The MIC was 0.4 µM (≈ 0.12 µg/mL).

And the MIC (Aspergillus versicolor [10])?
Its MIC is 40 µM (≈ 12 µg/mL).

And the MFC (Trichoderma viride [11])?
Its MFC is 60 µM (≈ 18 µg/mL).

And the MIC (Aspergillus niger [12])?
The MIC was 20 µM (≈ 6.01 µg/mL).

What about the MBC [13] of the same compound?
The MBC was 0.8 µM (≈ 0.24 µg/mL).

And the MFC (Penicillium ochrochloron [14])?
The MFC was 60 µM (≈ 18 µg/mL).

And the MIC [15]?
The MIC was 0.4 µM (≈ 0.12 µg/mL).

And the MBC (Bacillus subtilis [16])?
Its MBC is 0.8 µM (≈ 0.24 µg/mL).

And the MFC (Aspergillus ochraceus [17])?
The MFC was 30 µM (≈ 9.01 µg/mL).

What about the MBC (Pseudomonas fluorescens [18]) of the same compound?
Its MBC is 3.3 µM (≈ 0.991 µg/mL).

What about the MIC (Penicillium ochrochloron [19]) of the same compound?
Its MIC is 30 µM (≈ 9.01 µg/mL).

What about the MFC (Aspergillus niger [20]) of the same compound?
Its MFC is 30 µM (≈ 9.01 µg/mL).

What about the MBC (Xanthomonas campestris [21]) of the same compound?
The MBC was 0.8 µM (≈ 0.24 µg/mL).

And the MIC (Trichoderma viride [22])?
Its MIC is 30 µM (≈ 9.01 µg/mL).

What about the MIC (Aspergillus ochraceus [23]) of the same compound?
Its MIC is 20 µM (≈ 6.01 µg/mL).

What about the MFC (Aspergillus versicolor [24]) of the same compound?
Its MFC is 60 µM (≈ 18 µg/mL).

What about the MFC (Aspergillus fumigatus [25]) of the same compound?
Its MFC is 30 µM (≈ 9.01 µg/mL).

What about the MFC (Penicillium cyclopium [26]) of the same compound?
The MFC was 60 µM (≈ 18 µg/mL).

How did the MIC (Penicillium cyclopium [1]) turn out when `CC(C)(C)c1cc(/C=C(/C(=O)c2ccc(Cl)cc2Cl)n2cncn2)cc(C(C)(C)C)c1O` was run?
The MIC was 160 µM (≈ 75.6 µg/mL).

What about the MBC (Erwinia amylovora [2]) of the same compound?
Its MBC is 17 µM (≈ 8.03 µg/mL).

And the MIC (Bacillus subtilis [3])?
The MIC was 17 µM (≈ 8.03 µg/mL).

And the MIC (Aspergillus fumigatus [4])?
The MIC was 80 µM (≈ 37.8 µg/mL).

And the MIC (Pseudomonas fluorescens [5])?
Its MIC is 9 µM (≈ 4.25 µg/mL).

What about the MFC (Talaromyces funiculosus [6]) of the same compound?
The MFC was 160 µM (≈ 75.6 µg/mL).

What about the MIC (Xanthomonas campestris [7]) of the same compound?
Its MIC is 17 µM (≈ 8.03 µg/mL).

And the MIC (Talaromyces funiculosus [8])?
The MIC was 120 µM (≈ 56.7 µg/mL).

And the MIC (Erwinia amylovora [9])?
The MIC was 17 µM (≈ 8.03 µg/mL).

And the MIC (Aspergillus versicolor [10])?
Its MIC is 80 µM (≈ 37.8 µg/mL).

And the MFC (Trichoderma viride [11])?
Its MFC is 80 µM (≈ 37.8 µg/mL).

What about the MIC (Aspergillus niger [12]) of the same compound?
The MIC was 80 µM (≈ 37.8 µg/mL).

What about the MBC [13] of the same compound?
Its MBC is 9 µM (≈ 4.25 µg/mL).

What about the MFC (Penicillium ochrochloron [14]) of the same compound?
The MFC was 160 µM (≈ 75.6 µg/mL).

What about the MIC [15] of the same compound?
The MIC was 4.5 µM (≈ 2.13 µg/mL).

And the MBC (Bacillus subtilis [16])?
Its MBC is 17 µM (≈ 8.03 µg/mL).

What about the MFC (Aspergillus ochraceus [17]) of the same compound?
The MFC was 160 µM (≈ 75.6 µg/mL).

What about the MBC (Pseudomonas fluorescens [18]) of the same compound?
The MBC was 9 µM (≈ 4.25 µg/mL).

What about the MIC (Penicillium ochrochloron [19]) of the same compound?
The MIC was 80 µM (≈ 37.8 µg/mL).

And the MFC (Aspergillus niger [20])?
The MFC was 160 µM (≈ 75.6 µg/mL).

And the MBC (Xanthomonas campestris [21])?
The MBC was 17 µM (≈ 8.03 µg/mL).

What about the MIC (Trichoderma viride [22]) of the same compound?
Its MIC is 30 µM (≈ 14.2 µg/mL).

And the MIC (Aspergillus ochraceus [23])?
The MIC was 60 µM (≈ 28.3 µg/mL).

What about the MFC (Aspergillus versicolor [24]) of the same compound?
The MFC was 160 µM (≈ 75.6 µg/mL).

What about the MFC (Aspergillus fumigatus [25]) of the same compound?
The MFC was 160 µM (≈ 75.6 µg/mL).

What about the MFC (Penicillium cyclopium [26]) of the same compound?
Its MFC is 320 µM (≈ 151 µg/mL).
